Patent US12286632B2, “Rationally-designed synthetic peptide shuttle agents for delivering polypeptide cargos from an extracellular space to the cytosol and/or nucleus of a target eukaryotic cell, uses thereof, methods and kits relating to same” (Feldan Bio Inc., priority 2016, dated 2025)
Ends that are not written are not given here. Peptide text beside a SMILES is read from it.

Columns and labels:
in vitro [1] = settings: human, HeLa cells
in vitro [2] = settings: human, HeLa cells; remark: listed apart in the source
HeLa cells = test: GFP-NLS protein transduction assay (flow cytometry: Pos cells %, viability %, relative fluorescence intensity; microscopy); settings: GFP-NLS 5 μM; for Cell viability (%) (±St. Dev.; n = 3): Protocol B; for Cell viability (%) (±St. Dev.; n = 3) / FIG. 21B Cell viability (%) (±St. Dev.; n = 3): HeLa; for FIG. 21B Cell viability (%) (±St. Dev.; n = 3): Table 8.1, 1 hour; for cell viability: peptide 20 μM, Protocol B (Table 10.3e)
[3] = Cell viability (%) (±St. Dev.; n = 3)
[4] = Cell viability (%) (±St Dev.; n = 3)
[5] = Table 10.3e, shuttle 20 μM, 1 minute
[6] = Table 10.1, shuttle 50 μM, 10 seconds

Compound | viability at 1 min, 10 µM (in vitro [1]; [3]) [%] | viability (in vitro [2]) [%] | also measured
CC[C@H](C)[C@H](N)C(=O)N[C@H](C(=O)N[C@@H](CCCNC(=N)N)C(=O)N[C@@H](Cc1c[nH]cn1)C(=O)N[C@@H](CCC(=O)O)C(=O)N[C@@H](Cc1c[nH]cn1)C(=O)N[C@@H](CS)C(=O)N[C@@H](CCSC)C(=O)N[C@H](C(=O)N[C@@H](Cc1c[nH]cn1)C(=O)N[C@@H](CC(C)C)C(=O)N[C@@H](Cc1c[nH]c2ccccc12)C(=O)N[C@@H](Cc1ccc(O)cc1)C(=O)N[C@@H](CCCCN)C(=O)N[C@@H](CC(N)=O)C(=O)N[C@@H](CC(C)C)C(=O)N[C@@H](C)C(=O)N[C@@H](CCCCN)C(=O)N[C@@H](Cc1ccc(O)cc1)C(=O)N[C@@H](CS)C(=O)N[C@@H](CO)C(=O)N[C@H](C(=O)N[C@@H](CO)C(=O)N[C@@H](Cc1c[nH]cn1)C(=O)N[C@@H](C)C(=O)N[C@@H](CCCNC(=N)N)C(=O)N[C@@H](CCCNC(=N)N)C(=O)N[C@@H](CC(C)C)C(=O)N[C@@H](C)C(=O)N[C@@H](CCCNC(=N)N)C(=O)N[C@@H](CCCNC(=N)N)C(=O)N[C@@H](CCCNC(=N)N)C(=O)N[C@@H](C)C(=O)N[C@@H](Cc1c[nH]cn1)C(=O)N[C@@H](Cc1c[nH]cn1)C(=O)O)[C@@H](C)O)[C@@H](C)CC)C(C)C [FSD32] (H-IVRHEHCMIHLWYKNLAKYCSTSHARRLARRRAHH-OH) | 99.2 ± 3.37 | 98.36 ± 0.15 | –
CC[C@H](C)[C@H](NC(=O)[C@H](Cc1c[nH]cn1)NC(=O)[C@@H](NC(=O)[C@H](CC(C)C)NC(=O)[C@H](CS)NC(=O)[C@H](Cc1c[nH]cn1)NC(=O)[C@H](Cc1c[nH]cn1)NC(=O)[C@H](Cc1c[nH]cn1)NC(=O)[C@H](Cc1c[nH]cn1)NC(=O)[C@H](Cc1c[nH]cn1)NC(=O)[C@@H](N)Cc1c[nH]cn1)[C@@H](C)CC)C(=O)N[C@@H](Cc1c[nH]c2ccccc12)C(=O)N[C@@H](CCC(=O)O)C(=O)N[C@@H](C)C(=O)N[C@@H](CCCCN)C(=O)N[C@@H](CC(C)C)C(=O)N[C@@H](C)C(=O)N[C@@H](CCCCN)C(=O)N[C@@H](CCCCN)C(=O)N[C@@H](CS)C(=O)NCC(=O)NCC(=O)NCC(=O)NCC(=O)N[C@@H](Cc1ccc(O)cc1)C(=O)N[C@@H](C)C(=O)N[C@@H](CCCNC(=N)N)C(=O)N[C@@H](C)C(=O)N[C@@H](C)C(=O)N[C@@H](C)C(=O)N[C@@H](CCCNC(=N)N)C(=O)N[C@@H](CCC(N)=O)C(=O)N[C@@H](C)C(=O)N[C@@H](CCCNC(=N)N)C(=O)N[C@@H](C)C(=O)O [FSD36] (H-HHHHHHCLIHIWEAKLAKKCGGGGYARAAARQARA-OH) | 98.9 ± 0.38 | 97 ± 1.99 | –
ALLGLFIKWVKKVGTLFRKAKAGAQNRRAKAQKGK [FSD26] | – | 97.2 ± 1.53 | viability (in vitro [1]; [4]): 59.3 ± 1.27%
GHHHHHHHLIHIWEAKLAKLAKALARAAARQARAK [FSD38] | 98.1 ± 7.35 | 95 ± 2.78 | –
HHHHAAVLKLWKRLLKLFRKGRRLKAKRAKAKR [FSD20] | – | 20.5 ± 3.53 | viability (in vitro [1]; [4]): 65.4 ± 6.18%
HHHHHHCLLKKWEAKLAKKIGGGGRQARAKALAKA [FSD30] | 99.1 ± 0.52 | 97.4 ± 2.06 | –
HHHHHHHHRQRRRWEARGFLGGGGYARAARQARAA [FSD39] | 97.3 ± 2.07 | 99.2 ± 0.61 | –
HHHHHHHHRQRRRWEARGGFLGGGGYARAARQARA [FSD33] | 98.1 ± 1.73 | 75.3 ± 4.19 | –
HHHHHHHMAHLWESNARKFWKKAFAQHAAAHIAEA [FSD28] | 99.4 ± 4.04 | 97 ± 1.11 | –
HHHHHHKLIHIWEAKLFKKIRAAARQARARRAAKA [FSD34] | 97.9 ± 8.18 | 96.4 ± 2.41 | viability at 1 min, 10 µM (in vitro [1]; cell viability): 83.9 to 98%
HHHHHHKLLKRWEAKLAKALAKALAKHLAKALAKA [FSD35] | 81.7 ± 3.45 | 96.1 ± 1.67 | –
HHHHHHKWKIARAFARSLKKLYARLLARQAKTGHHHHHH [FSD15] | – | 98.3 ± 1.07 | viability (in vitro [1]): 96.1 ± 2.61%
HHHHHHKWKLARAFARAIKKLYARALRRQARTG [FSD8] | – | 42.3 ± 6.42 | viability (in vitro [1]; [4]): 64.8 ± 7.59%
HHHHHHKWKLARAFARAIKKLYARALRRQARTGHHHHHH [FSD9] | 79.5 ± 6.33 | 36.1 ± 3.41 | viability (in vitro [1]; [4]): 67.3 ± 5.19%; viability at 1 min, 8 µM (in vitro [1]; [3]): 82.3 ± 7.16%; viability at 2 min, 5 µM (in vitro [1]; [3]): 45.6 ± 3.64%
HHHHHHKWKLARAFARALRAIKKLYARALRRQARTG [FSD11] | – | 46.2 ± 1.35 | viability (in vitro [1]; [4]): 60.9 ± 7.59%
HHHHHHKWKLFKKIGAVLKVLTTGYARAAARQARAHHHHHH [His-CM18-PTD4-His] | – | 29.4 ± 2.38 | Cell viability (%) (±St. Dev.; n = 3) (HeLa cells; Table 10.3c, shuttle 10 μM, incubation 1 min): 68.1 ± 2.7%; Cell viability (%) (±St. Dev.; n = 3) (HeLa cells; Table 10.3c, shuttle 10 μM, incubation 2 min): 61.6 ± 3.2%; Cell viability (%) (±St. Dev.; n = 3) (HeLa cells; Table 10.3c, shuttle 10 μM, incubation 5 min): 41.2 ± 4.4%; Cell viability (%) (±St. Dev.; n = 3) (HeLa cells; [5]): 78.6 ± 1.1%

Compound | viability at 1 min, 10 µM (in vitro [1]; [3]) [%] | viability (in vitro [2]) [%] | also measured
HHHHHHKWKLFKKIGAVLKVLTTGYGRKKRRQRRR [His-CM18-TAT] | – | 13.6 ± 0.18 | FIG. 21B Cell viability (%) (±St. Dev.; n = 3) (HeLa cells; shuttle 1 μM): 95 ± 3.05%; FIG. 21B Cell viability (%) (±St. Dev.; n = 3) (HeLa cells; shuttle 3 μM): 91 ± 5.18%; FIG. 21B Cell viability (%) (±St. Dev.; n = 3) (HeLa cells; shuttle 5 μM): 86 ± 4.59%; Cell viability (%) (±St. Dev.; n = 3) (HeLa cells; [6]): 35.2 ± 5.7%; Cell viability (%) (±St. Dev.; n = 3) (HeLa cells; Table 10.3a, shuttle 50 μM, 10 seconds): 35.2 ± 5.7%
HHHHHHKWKLFWEAKLAKYARAAARQARAARQARA [FSD27] | 96.6 ± 4.94 | 98 ± 0.63 | viability at 1 min, 10 µM (in vitro [1]; cell viability): 83.9 to 98%
HHHHHHLLKLWSRLLKLWTQGRRLKAKRAKA [FSD16] | – | 99.07 ± 0.73 | viability (in vitro [1]; [4]): 88.2 ± 2.66%
HHHHHHWARLARAFARAIKKLYARALRRQARTG [FSD7] | – | 60.9 ± 7.59 | viability (in vitro [1]; [4]): 38.5 ± 3.48%
HHHHHHWLKLLRRAAKKAARLYRKLLRKARKLHHHHHH [FSD2] | – | 55.8 ± 4.19 | viability (in vitro [1]; [4]): 76.3 ± 5.99%
HHHKWKLFKKIGAVLKVLTTGYARAAARQARA [3His-CM18-PTD4] | – | 82 ± 6.81 | Cell viability (%) (±St. Dev.; n = 3) (HeLa cells; [5]): 39.2 ± 3.3%
KWKLFKKIGAVLKVLTTG [CM18, reference compound] | – | 99.4 ± 0.14 | Cell viability (%) (±St. Dev.; n = 3) (HeLa cells; Table 10.4, peptide 50 μM, 10 seconds): 95 ± 1.2%
KWKLFKKIGAVLKVLTTGGGSGGGSGGGSGYARAAARQARA [CM18-L3-PTD4] | – | 98.4 ± 0.83 | viability at 1 min, 20 µM (in vitro [1]): 71.9 ± 6%; cell viability (HeLa cells; 1 minute): increased cell viability
KWKLFKKIGAVLKVLTTGGGSGGGSYARAAARQARA [CM18-L2-PTD4] | – | 93.7 ± 3.07 | Cell viability (%) (±St. Dev.; n = 3) (HeLa cells; [5]): 64.0 ± 1.3%; cell viability (HeLa cells; 1 minute): increased cell viability
KWKLFKKIGAVLKVLTTGGGSYARAAARQARA [CM18-L1-PTD4] | – | 84.3 ± 5.64 | Cell viability (%) (±St. Dev.; n = 3) (HeLa cells; [5]): 50.1 ± 3.8%; cell viability (HeLa cells; 1 minute): increased cell viability
KWKLFKKIGAVLKVLTTGYARAAARQARA [CM18-PTD4] | – | 49.6 ± 5.06 | Cell viability (%) (±St. Dev.; n = 3) (HeLa cells; [5]): 33.9 ± 3.7%; cell viability (HeLa cells; 1 minute): 33.9%
LHHHHHKLIHIWEAKLAKALAKALARRAAARQARA [FSD41] | 79.5 ± 0.33 | 94.4 ± 2.81 | –
YGRKKRRQRRRCKWKLFKKIGAVLKVLTTG [TAT-CM18] | – | 44.8 ± 4.17 | Cell viability (%) (±St. Dev.; n = 3) (HeLa cells; [6]): 23.5 ± 1.1%; Cell viability (%) (±St. Dev.; n = 3) (HeLa cells; Table 10.3b, shuttle 50 μM, 10 seconds): 23.5 ± 1.1%
YGRKKRYMLRLWYQNLRMYCKKAYAQHRARQHAKL [FSD40] | 83.9 ± 4.16 | 98.6 ± 1.08 | viability at 1 min, 10 µM (in vitro [1]; cell viability): 83.9 to 98%
YHHHHHKWKKRWEAKLAKALRAAGRQARAKALAKA [FSD31] | 97.8 ± 4.22 | 98.43 ± 0.43 | –
